These results are taken from US11166924B2, “N-methyl-d-aspartate receptor allosteric modulators and methods for their use” (Qingdao Primedicine Pharmaceutical Company, Ltd., priority 2016, dated 2021).

In one test the target is T1, GluN1/GluN2A^F115Y (Rattus norvegicus, UniProt P35439+Q00959, F115Y).
T1 construct: expressed in transfected cells; host or cells: HEK293
Kind of test: Patch clamp in HEK293 cells expressing mutant GluN1/GluN2A F115Y. It is filed as cell-based. The protocol:
(§1) Whole cell patch-clamp recordings were performed under voltage-clamp mode using an Axopatch 200B or 1D patch-clamp amplifier (Molecular Devices). Whole-cell currents were recorded at a holding potential of −60 mV unless indicated elsewhere, and signals were filtered at 2 kHz, digitized at 10 kHz (Digidata 1322A). Recording pipettes (3-5 MΩ) were filled with intracellular solution containing (mM): CsCl 140, HEPES 10, Mg-ATP 4, QX-314 5, pH 7.20; osmolarity, 290-295 mOsm. BAPTA (10 mM) was added in the intracellular solution (unless otherwise specified). The coverslips were continuously superfused with extracellular solution containing (mM): NaCl 140, KCl 5.4, HEPES 10, CaCl2 1.3, glucose 20, pH 7.4; osmolarity, 305-315 mOsm. NMDA-induced currents were applied by NMDA through perfusion fast-step (Warner Instruments). With perfusion fast-step system, NMDA application was achieved by using a two-square barrel glass tubing and depending on the age of the cultured neurons, CNQX (10 μM), TTX (0.5 μM) or BIC (10 μM) were added in the extracellular solution to minimize the activation of ionotropic glutamate receptors and voltage-gated sodium channels, respectively. All experiments were performed at room temperature. Recordings from at least six HEK293 cells/neurons were performed for all active compounds. […]
A general note: In patch-clamp work, channel activity is measured electrically.

A further test has as its target T2, GluN1/GluN2A^I176Y (Rattus norvegicus, UniProt P35439+Q00959, I176Y).
T2 construct: expressed in transfected cells; host or cells: HEK293
The test can be described thus: Patch clamp in HEK293 cells expressing mutant GluN1/GluN2A I176Y. Type of test: cell-based. As for the experimental part:
as §1

For another test, the target named is T3, GluN1^L135Q/GluN2A^F115S (Rattus norvegicus, UniProt P35439+Q00959, F115S/L135Q).
T3 construct: expressed in transfected cells; host or cells: HEK293
Kind of test: Patch clamp in HEK293 cells expressing double mutant GluN1 L135Q/GluN2A F115S. It is filed as cell-based. The protocol:
as §1

Test [1] has as its system CREB phosphorylation (pCREB). Kind of test: CREB phosphorylation (pCREB) immunoblotting in cortical neurons. It is filed as cell-based, rat. Conditions: presence or absence of ifenprodril; FIG. 15a. As for the experimental part: Dissociated cultures of rat cortical neurons were prepared from 18 day-old Sprague Dawley rat embryos as described previously. To obtain mixed cortical cultures enriched with neurons, uridine (10 μM) and 5-Fluor-2′-deoxyuridine (10 μM) were added to the culture medium at 3 days in vitro (DIV) and maintained for 48 h to inhibit non-neuronal cell proliferation before the cultures were returned to the normal culture medium. Mature neurons (11-14 DIV) were used for experiments. Mouse cortical cultures were prepared using embryos at 18 days post-coitum from litters resulting from heterozygote GluN2A+/− or GluN2B+/− matings. To obtain homozygous and wild-type (WT) littermate control neuronal cultures, cortical cells from individual embryos were plated separately. Genotyping was performed as described previously using tail samples collected from each embryo. To induce neuronal apoptosis, cortical cultures were stimulated with NMDA (50 μM) and glycine (10 μM) for 20 min, or STS (100 nM) for 1 h in Mg2+-free extracellular solution (ECS) containing the following (in mM): 25 HEPES acid, 140 NaCl, 33 glucose, 5.4 KCl, and 1.3 CaCl2, with pH 7.35 and osmolarity 320-330 mOsm. […]

Test [2] relates to post-stroke locomotory behavior. The test can be described thus: Neurological behavioral tests after stroke. It is filed as in vivo, rat. Conditions: 28 days after stroke onset, versus untreated control rats. As for the experimental part: To assess functional recovery of neural circuits damaged by ischemic insult, three locomotor activity (sensorimotor) deficit modalities were tested: 1) vertical activity (the total number of beam interruptions that occurred in the vertical sensor); 2) number of vertical movements (number of animal rears); and 3) vertical movement time (the amount of time, in seconds, the animal rears) using the VersaMax Animal Activity Monitor (Accuscan Instruments). An ischemic rat was placed into the recording chamber during the ‘dark’ phase of the day/night cycle, and vertical movement time (seconds) was automatically recorded by computer over a 2 h period. The total length of vertical movement represents the recovery of locomotor circuits injured by ischemic stroke.
Neurobehavioral assays were performed to assess functional recovery of neurons post-stroke.

T3 sequence (Q00959 23-1464 F115S, other chains not shown): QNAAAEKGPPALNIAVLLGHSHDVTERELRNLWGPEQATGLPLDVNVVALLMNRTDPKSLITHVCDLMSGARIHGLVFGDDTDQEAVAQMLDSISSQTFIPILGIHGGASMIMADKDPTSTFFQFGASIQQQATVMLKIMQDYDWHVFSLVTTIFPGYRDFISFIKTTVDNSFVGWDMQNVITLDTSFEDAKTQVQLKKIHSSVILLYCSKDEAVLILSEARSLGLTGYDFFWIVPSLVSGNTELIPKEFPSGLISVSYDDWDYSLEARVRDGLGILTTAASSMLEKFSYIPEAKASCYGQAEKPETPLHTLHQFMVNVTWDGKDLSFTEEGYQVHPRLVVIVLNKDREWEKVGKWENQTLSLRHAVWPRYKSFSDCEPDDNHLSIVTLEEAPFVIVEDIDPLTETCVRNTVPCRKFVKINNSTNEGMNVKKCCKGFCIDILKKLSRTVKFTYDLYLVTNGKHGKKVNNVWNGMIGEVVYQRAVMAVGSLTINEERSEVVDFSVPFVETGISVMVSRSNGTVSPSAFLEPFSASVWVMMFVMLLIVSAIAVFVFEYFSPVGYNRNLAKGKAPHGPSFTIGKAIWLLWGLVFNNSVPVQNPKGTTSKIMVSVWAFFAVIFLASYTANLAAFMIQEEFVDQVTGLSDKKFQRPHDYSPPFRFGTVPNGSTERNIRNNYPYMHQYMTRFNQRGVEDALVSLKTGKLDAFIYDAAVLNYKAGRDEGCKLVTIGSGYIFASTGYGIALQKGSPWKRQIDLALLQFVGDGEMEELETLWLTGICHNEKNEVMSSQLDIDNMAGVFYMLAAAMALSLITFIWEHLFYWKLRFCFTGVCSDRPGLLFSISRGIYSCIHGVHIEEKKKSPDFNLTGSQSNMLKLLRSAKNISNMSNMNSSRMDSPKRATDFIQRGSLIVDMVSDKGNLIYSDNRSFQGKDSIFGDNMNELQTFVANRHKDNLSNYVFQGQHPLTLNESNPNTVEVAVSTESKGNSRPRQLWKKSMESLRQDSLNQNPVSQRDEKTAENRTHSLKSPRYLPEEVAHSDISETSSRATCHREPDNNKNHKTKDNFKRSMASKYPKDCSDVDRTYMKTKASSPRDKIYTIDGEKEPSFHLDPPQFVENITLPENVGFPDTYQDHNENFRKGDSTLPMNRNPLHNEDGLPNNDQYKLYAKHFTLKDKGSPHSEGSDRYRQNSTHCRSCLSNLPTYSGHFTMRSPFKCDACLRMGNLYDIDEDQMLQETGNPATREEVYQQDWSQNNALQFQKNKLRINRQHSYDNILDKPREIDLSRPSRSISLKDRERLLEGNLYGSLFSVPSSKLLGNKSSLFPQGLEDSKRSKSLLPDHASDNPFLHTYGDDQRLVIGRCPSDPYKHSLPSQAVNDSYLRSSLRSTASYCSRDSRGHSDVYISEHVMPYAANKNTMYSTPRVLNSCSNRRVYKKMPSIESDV
T2 sequence (Q00959 23-1464 I176Y, other chains not shown): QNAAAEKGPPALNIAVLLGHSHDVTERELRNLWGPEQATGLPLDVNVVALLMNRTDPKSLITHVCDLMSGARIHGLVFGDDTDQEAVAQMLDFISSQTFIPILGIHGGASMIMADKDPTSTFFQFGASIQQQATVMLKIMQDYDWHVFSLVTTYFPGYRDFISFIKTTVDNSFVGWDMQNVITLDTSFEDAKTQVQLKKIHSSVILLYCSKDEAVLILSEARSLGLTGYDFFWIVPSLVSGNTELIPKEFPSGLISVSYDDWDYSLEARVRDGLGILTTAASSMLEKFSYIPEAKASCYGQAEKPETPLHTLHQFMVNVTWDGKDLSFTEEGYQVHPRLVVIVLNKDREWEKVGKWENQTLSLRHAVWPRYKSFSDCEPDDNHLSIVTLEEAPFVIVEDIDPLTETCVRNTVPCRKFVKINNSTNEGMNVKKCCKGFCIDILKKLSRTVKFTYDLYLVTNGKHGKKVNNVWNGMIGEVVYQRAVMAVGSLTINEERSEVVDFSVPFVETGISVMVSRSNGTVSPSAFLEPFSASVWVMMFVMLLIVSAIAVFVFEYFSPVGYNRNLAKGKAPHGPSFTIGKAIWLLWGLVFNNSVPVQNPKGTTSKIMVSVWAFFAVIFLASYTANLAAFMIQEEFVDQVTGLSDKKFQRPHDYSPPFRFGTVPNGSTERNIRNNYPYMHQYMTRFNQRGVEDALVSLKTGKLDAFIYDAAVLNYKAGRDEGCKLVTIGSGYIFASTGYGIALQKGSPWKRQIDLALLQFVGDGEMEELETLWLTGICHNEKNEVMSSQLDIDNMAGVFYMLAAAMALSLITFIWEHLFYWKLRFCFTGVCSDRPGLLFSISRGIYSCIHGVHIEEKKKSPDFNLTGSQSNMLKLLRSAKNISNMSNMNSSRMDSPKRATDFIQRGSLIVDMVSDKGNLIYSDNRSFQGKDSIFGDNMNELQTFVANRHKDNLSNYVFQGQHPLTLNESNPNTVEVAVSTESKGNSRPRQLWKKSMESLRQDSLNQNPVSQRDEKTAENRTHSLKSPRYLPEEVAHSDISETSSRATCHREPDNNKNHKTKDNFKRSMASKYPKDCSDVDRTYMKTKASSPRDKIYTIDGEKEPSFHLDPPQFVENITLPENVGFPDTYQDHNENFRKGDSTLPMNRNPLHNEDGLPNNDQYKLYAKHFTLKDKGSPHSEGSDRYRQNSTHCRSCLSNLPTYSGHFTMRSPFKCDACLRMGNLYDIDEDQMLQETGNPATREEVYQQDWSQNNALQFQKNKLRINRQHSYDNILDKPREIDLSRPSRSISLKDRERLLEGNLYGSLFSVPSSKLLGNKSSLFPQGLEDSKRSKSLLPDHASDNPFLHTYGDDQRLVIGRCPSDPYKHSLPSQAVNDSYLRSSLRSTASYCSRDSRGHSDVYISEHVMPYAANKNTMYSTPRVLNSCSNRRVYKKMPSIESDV
T1 sequence (Q00959 23-1464 F115Y, other chains not shown): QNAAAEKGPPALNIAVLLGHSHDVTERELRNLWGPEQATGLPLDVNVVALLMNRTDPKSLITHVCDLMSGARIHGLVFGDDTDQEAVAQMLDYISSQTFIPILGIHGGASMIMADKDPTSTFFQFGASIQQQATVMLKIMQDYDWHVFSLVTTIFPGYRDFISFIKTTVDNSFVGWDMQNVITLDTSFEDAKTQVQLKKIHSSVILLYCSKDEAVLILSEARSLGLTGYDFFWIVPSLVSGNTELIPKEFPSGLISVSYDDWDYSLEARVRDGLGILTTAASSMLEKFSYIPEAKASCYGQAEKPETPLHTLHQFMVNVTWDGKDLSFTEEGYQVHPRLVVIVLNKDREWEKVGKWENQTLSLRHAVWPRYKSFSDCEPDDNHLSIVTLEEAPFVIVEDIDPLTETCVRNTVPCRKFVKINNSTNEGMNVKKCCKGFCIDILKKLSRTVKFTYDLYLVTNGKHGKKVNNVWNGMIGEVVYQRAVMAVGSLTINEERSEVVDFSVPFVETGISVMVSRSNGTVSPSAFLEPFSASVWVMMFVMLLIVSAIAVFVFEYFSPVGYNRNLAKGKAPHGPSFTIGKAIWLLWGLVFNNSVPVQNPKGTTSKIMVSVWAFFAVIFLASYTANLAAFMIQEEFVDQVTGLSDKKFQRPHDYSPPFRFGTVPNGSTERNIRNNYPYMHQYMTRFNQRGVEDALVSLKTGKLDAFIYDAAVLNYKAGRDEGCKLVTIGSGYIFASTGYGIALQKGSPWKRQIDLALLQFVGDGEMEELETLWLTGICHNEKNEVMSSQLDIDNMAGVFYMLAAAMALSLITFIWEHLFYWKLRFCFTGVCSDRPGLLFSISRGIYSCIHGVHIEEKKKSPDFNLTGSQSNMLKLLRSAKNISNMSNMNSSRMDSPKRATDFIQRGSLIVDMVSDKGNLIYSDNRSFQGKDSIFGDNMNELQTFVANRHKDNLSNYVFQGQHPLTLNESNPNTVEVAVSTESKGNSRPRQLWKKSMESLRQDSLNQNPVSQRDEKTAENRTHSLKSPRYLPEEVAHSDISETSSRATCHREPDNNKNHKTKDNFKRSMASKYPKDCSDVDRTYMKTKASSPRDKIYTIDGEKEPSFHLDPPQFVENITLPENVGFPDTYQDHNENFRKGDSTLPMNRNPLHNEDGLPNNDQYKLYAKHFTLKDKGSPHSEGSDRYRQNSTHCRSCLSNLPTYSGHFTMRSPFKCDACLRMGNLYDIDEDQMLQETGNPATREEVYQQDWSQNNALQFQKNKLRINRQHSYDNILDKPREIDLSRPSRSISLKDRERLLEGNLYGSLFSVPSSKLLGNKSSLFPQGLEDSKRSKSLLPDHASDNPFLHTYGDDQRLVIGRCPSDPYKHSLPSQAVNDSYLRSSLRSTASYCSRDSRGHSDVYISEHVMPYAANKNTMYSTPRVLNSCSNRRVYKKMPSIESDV

For the compound `CCOc1cc(Cl)c(Cl)c(/C=N/NC(=O)c2ccccc2Br)c1O` [Npam43, (E)-2-bromo-N′-(2,3-dichloro-5-ethoxy-6-hydroxybenzylidene)benzohydrazide], the Relative potentiation on GluN1/GluN2A^F115Y (Table 3) is 100 ± 4.2%; on GluN1/GluN2A^I176Y (Table 3) it was 189 ± 3.8%; at GluN1^L135Q/GluN2A^F115S (Table 3, GluN1 L135Q/GluN2A F115S) it was 12.7 ± 1.8%. In addition, the “Net Difference potentiation” value at GluN1/GluN2A^F115Y (normalized to wild-type) is recorded as −52.2 ± 0.52%; on GluN1/GluN2A^I176Y (normalized to wild-type), −10.1 ± 0.12%; on GluN1^L135Q/GluN2A^F115S (GluN1 L135Q/GluN2A F115S double mutation, normalized to wild-type), −93.9±10.3%. Besides, the “CREB phosphorylation (pCREB)” value in test [1] is given as “increases”. Also, in test [2], the Post-stroke locomotory behavior entry was “increased post-stroke locomotory behavior”.
